According to PubChem BioAssay AID248 (DTP/NCI, 2004):
Several values for one entry are separate records, joined by “and”; a condition that tells them apart may be missing. Equal entries are not always repeated. Inconclusive results and toxic doses are left out. Cut-off read from the data, not from the text of the source: active = T/C of 150% or more; inactive = T/C below 125%.

System: L1210 leukemia ip in BDF1 mice, survival T/C
Experiment: NCI In Vivo Anticancer Drug Screen. Data for tumor model L1210 Leukemia (intraperitoneal) in B6D2F1 (BDF1) mice
Settings: endpoint: mean survival time, higher = longer survival
In short: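 Transplantable tumor model; survival measured in treated vs vehicle control mice. Value = treated/control.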

[1] = dose: 100.0 mg/kg/injection, schedule: Q01DX009 (ip), vehicle: saline with Tween-80
[2] = dose: 100.0 mg/kg/injection, schedule: Q04DX003 (ip), vehicle: saline with Tween-80
[3] = dose: 200.0 mg/kg/injection, schedule: Q01DX009 (ip), vehicle: saline with Tween-80
[4] = dose: 200.0 mg/kg/injection, schedule: Q04DX003 (ip), vehicle: saline with Tween-80
[5] = dose: 400.0 mg/kg/injection, schedule: Q01DX009 (ip), vehicle: saline with Tween-80
[6] = dose: 400.0 mg/kg/injection, schedule: Q04DX003 (ip), vehicle: saline with Tween-80
[7] = dose: 100.0 mg/kg/injection, schedule: Q01DX001 (ip), vehicle: saline
[8] = dose: 100.0 mg/kg/injection, schedule: Q04DX003 (ip), vehicle: saline
[9] = dose: 200.0 mg/kg/injection, schedule: Q01DX001 (ip), vehicle: saline
[10] = dose: 200.0 mg/kg/injection, schedule: Q04DX003 (ip), vehicle: saline
[11] = dose: 100.0 mg/kg/injection, schedule: Q01DX001 (ip), vehicle: carboxymethylcellulose (CMC)
[12] = dose: 200.0 mg/kg/injection, schedule: Q01DX001 (ip), vehicle: carboxymethylcellulose (CMC)
[13] = dose: 400.0 mg/kg/injection, schedule: Q01DX001 (ip), vehicle: carboxymethylcellulose (CMC)
[14] = dose: 100.0 mg/kg/injection, schedule: Q01DX009 (ip), vehicle: other
[15] = dose: 400.0 mg/kg/injection, schedule: Q01DX001 (ip), vehicle: saline
[16] = dose: 100.0 mg/kg/injection, schedule: Q04DX002 (ip), vehicle: Klucel (hydroxypropylcellulose) (HPC)
[17] = dose: 200.0 mg/kg/injection, schedule: Q04DX002 (ip), vehicle: Klucel (hydroxypropylcellulose) (HPC)
[18] = dose: 400.0 mg/kg/injection, schedule: Q04DX002 (ip), vehicle: Klucel (hydroxypropylcellulose) (HPC)

Measured: T/C

COc1ccc(/C=N/n2c(C)cc(C)c(C#N)c2=O)c(OC)c1OC
inactive: [1] 100 % of control | [2] 118 % of control | [3] 91 % of control | [4] 103 % of control | [5] 107 % of control | [6] 106 % of control

Cc1cc(C)c2nc(-c3ccc(F)cc3)cc(C(=O)O)c2c1
inactive: dose: 50.0 mg/kg/injection, schedule: Q04DX003 (ip), vehicle: saline 97 % of control | [7] 101 % of control | [8] 97 % of control | [9] 93 % of control | [10] 96 % of control

CC1([N+](=O)[O-])COP(=O)(Nc2ccc(Cl)cc2)OC1 (stereo not given)
inactive: [11] 95 % of control | [12] 93 % of control | [13] 98 % of control

CCOC(=O)/C(C#N)=C1\CCc2cc(OC)ccc21
inactive: [7] 96 % of control | [14] 103 % of control | [9] 90 % of control | dose: 200.0 mg/kg/injection, schedule: Q01DX009 (ip), vehicle: other 99 % of control | [15] 92 % of control | dose: 400.0 mg/kg/injection, schedule: Q01DX009 (ip), vehicle: other 97 % of control

Cn1cc(C=O)c2nccnc21
inactive: dose: 50.0 mg/kg/injection, schedule: Q01DX009 (ip), vehicle: saline 98 % of control | dose: 100.0 mg/kg/injection, schedule: Q01DX009 (ip), vehicle: saline 95 % of control | [8] 100 % of control | dose: 200.0 mg/kg/injection, schedule: Q01DX009 (ip), vehicle: saline 98 % of control | [10] 100 % of control

Brc1cccc2nc(/C=C\c3ccccc3)ccc12
inactive: dose: 100.0 mg/kg/injection, schedule: Q01DX001 (ip), vehicle: other 98 % of control | dose: 200.0 mg/kg/injection, schedule: Q01DX001 (ip), vehicle: other 95 % of control | dose: 400.0 mg/kg/injection, schedule: Q01DX001 (ip), vehicle: other 89 % of control

CC(=O)OC1C(C)OC(n2cnc3c(=S)nc[nH]c32)C1OC(C)=O (stereo not given)
inactive: dose: 50.0 mg/kg/injection, schedule: Q01DX001 (ip), vehicle: carboxymethylcellulose (CMC) 103 % of control | [11] 101 % of control | [12] 108 % of control | [13] 106 % of control

CCCCCCCCCCCCCCCCCOC(=O)CCCCCCCCCCCCCCCCC
inactive: [2] 103 % of control | [4] 92 % of control | [6] 89 % of control

O=[N+]([O-])c1cccc(C=Nc2cccc(Cl)c2)c1
inactive: [16] 96 % of control | [17] 100 % of control | [18] 100 % of control

CCOP(=O)(C(O)C(Cl)(Cl)Cl)C(O)C(Cl)(Cl)Cl (stereo not given)
inactive: dose: 75.0 mg/kg/injection, schedule: Q04DX003 (ip), vehicle: saline with Tween-80 95 % of control | dose: 150.0 mg/kg/injection, schedule: Q04DX003 (ip), vehicle: saline with Tween-80 97 % of control

O=C(O)c1cccc(C(=O)c2ccccc2)c1O
inactive: [11] 97 % of control | [12] 100 % of control | [13] 92 % of control

F[Si](F)(c1ccccc1)c1ccccc1
inactive: dose: 75.0 mg/kg/injection, schedule: Q01DX001 (ip), vehicle: saline 105 % of control | dose: 150.0 mg/kg/injection, schedule: Q01DX001 (ip), vehicle: saline 100 % of control

CCCC/C=C/CO
inactive: dose: 25.0 mg/kg/injection, schedule: Q01DX009 (ip), vehicle: saline with Tween-80 97 % of control | dose: 50.0 mg/kg/injection, schedule: Q01DX009 (ip), vehicle: saline with Tween-80 97 % of control and 100 % of control | [3] 97 % of control and 100 % of control

C[N+]1(C)CCC[N+](C)(C)CC1
inactive: dose: 55.0 mg/kg/injection, schedule: Q01DX Z (ip), vehicle: saline 95 % of control | dose: 83.0 mg/kg/injection, schedule: Q01DX Z (ip), vehicle: saline 98 % of control | dose: 125.0 mg/kg/injection, schedule: Q01DX Z (ip), vehicle: saline 103 % of control

CCCCN1C(=O)CCC1=O
inactive: [8] 110 % of control | [10] 103 % of control | dose: 400.0 mg/kg/injection, schedule: Q04DX003 (ip), vehicle: saline 110 % of control

CC(=O)OCC1OC(n2cc(C)c(=O)[nH]c2=O)C(OC(C)=O)C(OC(C)=O)C1OC(C)=O (stereo not given)
inactive: [7] 94 % of control | [9] 105 % of control | [15] 97 % of control

O=C(Cn1cc(F)c(=O)[nH]c1=O)c1ccc(Cl)s1
inactive: [1] 108 % of control | [2] 100 % of control | [3] 89 % of control | [4] 97 % of control | [5] 97 % of control | [6] 102 % of control

COc1ccc(NC(=O)c2ccc(C(=O)Nc3ccc(OC)cc3OC)cc2)c(OC)c1
inactive: [16] 90 % of control | [17] 93 % of control and 102 % of control | [18] 93 % of control and 91 % of control

O=C(Nc1ccc(S(=O)(=O)Nc2ccc(N=Nc3ccccc3)cc2)cc1)C(SC1=NC=NC2=NC=NC21)SC1=NC=NC2=NC=NC21 (stereo not given)
inactive: dose: 75.0 mg/kg/injection, schedule: Q04DX003 (ip), vehicle: saline 104 % of control | dose: 150.0 mg/kg/injection, schedule: Q04DX003 (ip), vehicle: saline 96 % of control | dose: 300.0 mg/kg/injection, schedule: Q04DX003 (ip), vehicle: saline 109 % of control

FC(F)(Cl)c1nc2nc(Cl)c(Cl)nc2[nH]1
inactive: dose: 50.0 mg/kg/injection, schedule: Q01DX009 (ip), vehicle: other 96 % of control | [14] 122 % of control | dose: 100.0 mg/kg/injection, schedule: Q04DX003 (ip), vehicle: other 114 % of control | dose: 200.0 mg/kg/injection, schedule: Q04DX003 (ip), vehicle: other 123 % of control | dose: 400.0 mg/kg/injection, schedule: Q04DX003 (ip), vehicle: other 96 % of control

COC(=O)C(CCC(=O)O)NC(=O)C(F)(F)F (stereo not given)
inactive: dose: 100.0 mg/kg/injection, schedule: Q01DX001 (ip), vehicle: Klucel (hydroxypropylcellulose) (HPC) 89 % of control | dose: 200.0 mg/kg/injection, schedule: Q01DX001 (ip), vehicle: Klucel (hydroxypropylcellulose) (HPC) 97 % of control | dose: 400.0 mg/kg/injection, schedule: Q01DX001 (ip), vehicle: Klucel (hydroxypropylcellulose) (HPC) 89 % of control

CCN1CCN(CC)C1(Br)C1(Br)N(CC)CCN1CC
inactive: dose: 75.0 mg/kg/injection, schedule: Q04DX002 (ip), vehicle: saline with Tween-80 91 % of control | dose: 150.0 mg/kg/injection, schedule: Q04DX002 (ip), vehicle: saline with Tween-80 91 % of control | dose: 300.0 mg/kg/injection, schedule: Q04DX002 (ip), vehicle: saline with Tween-80 98 % of control
